Reference: patent US20250179057A1, “MEK IMMUNE ONCOLOGY INHIBITORS AND THERAPEUTIC USES THEREOF” (Immuneering Corporation, priority 2022, published 2025)
Where a name gives a salt, the structure may show the parent alone.

Columns and labels:
[1] = Plasma stability, human plasma (K2EDTA); format: in vitro ADME; details: human plasma, 2 μM, anti-coagulant K2-EDTA; for T1/2 / half-life at 2 μM: 10 to 120 min; for % Remaining at T120: 120 min; for half-life at 2 μM: pH 7.4, read-out: T1/2
[2] = Plasma stability, beagle dog plasma (K2EDTA); format: in vitro ADME; details: beagle dog plasma, 2 μM, anti-coagulant K2-EDTA; for % Remaining at T120: 120 min; for half-life at 2 μM: pH 7.4, read-out: T1/2
[3] = Plasma stability, mouse plasma (Balb/c; Table 5 head CD-1 Mouse); format: in vitro ADME; details: balb/c plasma, 2 μM, anti-coagulant K2-EDTA; for % Remaining at T120: 120 min; for half-life at 2 μM: mouse, pH 7.4, read-out: T1/2
Method: Individual stock solutions of propantheline and lovastatin were prepared at 10 mM in DMSO and were further diluted to 2 mM with DMSO.
Frozen matrices (Balb/c mouse, Wistar Han rat, Beagle dog, and human plasma containing K2EDTA as anti-coagulant) were thawed and centrifuged at 3100 rpm for 10 minutes at 4° C. to remove particulates. The lipid layer was then removed, and the supernatant was transferred to a new tube without disturbing the pellet. After the matrices were incubated at 37° C. for at least 10 minutes, the pH of each matrix was adjusted to pH 7.4, using 10% phosphoric acid or 1N sodium hydroxide as necessary. Test and control article stock solutions were spiked (2 μL) into matrix (1.998 mL) and mixed to final assay concentration of […]. Duplicate 30-μL aliquots of spiked plasma were transferred to matrix tubes in 96-well plate immediately after spiking for timepoints of 0, 30, 60, 120, 240, and 360 minutes. These tubes were then incubated at 37° C. with shaking and at each timepoint, the corresponding tubes containing samples were quenched with 180 μL of cold acetonitrile containing the internal standards. The quenched samples were vortex-mixed briefly and stored refrigerated. After the final time point (360 minutes), the plates with all quenched samples were vortex-mixed for 10 minutes and then centrifuged at 3100 rpm for 10 minutes at 4° C. to sediment the precipitated protein. The supernatant (50 μL) was transferred to a clean 96-well plate and diluted with 100 μL of water. The plates were stored refrigerated until analysis.
Data Analysis: Peak area ratios for IS-normalized test article and control article counts were used to calculate the percent remaining relative to the time zero (T0) value. As appropriate, results were plotted and further analyzed to calculate half-life (T1/2) values.
Mean peak area ratios were used to calculate the % remaining relative to the T0 value:
In this study, human, cynomolgus monkey, beagle dog, wistar hannover rat, and balb/c plasma stability was determined. Table 28 describes the results of the human plasma stability at 2 μM concentration and anti-coagulant K2-EDTA from 10 to 120 min. Table 29 describes the results of the cynomolgus monkey plasma stability at 2 μM concentration and anti-coagulant K2-EDTA. Table 30 describes the results of the beagle dog plasma stability at 2 μM concentration and anti-coagulant K2-EDTA. Table 31 describes the results of the wistar hannover rat plasma stability at 2 μM concentration and anti-coagulant K2-EDTA. Table 32 describes the results of the balb/c plasma stability at 2 μM concentration and anti-coagulant K2-EDTA.

CYP2C9 = CYP2C9 (Homo sapiens, UniProt P11712); assay: CYP450 panel inhibition in human liver microsomes, 2C9 (diclofenac); details: for CYP-2C9 (Diclofenac) mean percentage CYP inhibition: human liver microsomes, 10 μM, substrate diclofenac; for inhibition at 30 min, 10 µM: human, microsomes, pH 7.4
Source text: The quenched samples were stored refrigerated.

human hepatocytes = assay: Hepatocyte stability, human; format: in vitro ADME; details: 2 μM, 0.5 million cells/ml; for % Remaining At T120 / T1/2: 120 min
Method: (§1) In this study, human, cynomolgus monkey, beagle dog, wistar hannover rat, and balb/c mouse hepatocyle stability was determined.

[4] = system: cynomolgus monkey hepatocytes; assay: Hepatocyte stability, cynomolgus monkey; format: in vitro ADME; details: 2 μM, 0.5 million cells/ml
Method: as §1

beagle dog hepatocytes = assay: Hepatocyte stability, beagle dog; format: in vitro ADME; details: 2 μM, 0.5 million cells/ml
Method: as §1

[5] = system: wistar hannover rat hepatocytes; assay: Hepatocyte stability, wistar hannover rat; format: in vitro ADME; details: 2 μM, 0.5 million cells/ml
Method: as §1

balb/c mouse hepatocytes = assay: Hepatocyte stability, balb/c mouse; format: in vitro ADME; details: 2 μM, 0.5 million cells/ml
Method: as §1

Caco-2 cells = assay: Caco-2 bidirectional permeability (absorption & efflux); details: Example 47

Chain of CYP2C9 (P11712 whole entry): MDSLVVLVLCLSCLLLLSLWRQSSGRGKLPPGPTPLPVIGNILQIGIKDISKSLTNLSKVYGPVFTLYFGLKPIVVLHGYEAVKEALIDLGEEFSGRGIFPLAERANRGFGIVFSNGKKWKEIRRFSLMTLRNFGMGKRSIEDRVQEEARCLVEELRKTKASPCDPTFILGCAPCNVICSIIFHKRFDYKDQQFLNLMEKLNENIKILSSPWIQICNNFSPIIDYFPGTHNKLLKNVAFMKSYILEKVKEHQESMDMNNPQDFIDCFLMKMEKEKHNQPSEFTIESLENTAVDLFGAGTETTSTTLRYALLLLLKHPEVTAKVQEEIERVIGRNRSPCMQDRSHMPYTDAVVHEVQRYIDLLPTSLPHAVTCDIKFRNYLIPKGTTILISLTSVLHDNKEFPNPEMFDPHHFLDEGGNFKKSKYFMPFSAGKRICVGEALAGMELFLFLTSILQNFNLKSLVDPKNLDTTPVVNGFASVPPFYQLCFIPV

In the case of CNS(=O)(=O)Nc1nccc(Cc2c(CN(C)C)c3ccc(OC(=O)N(C)C)cc3oc2=O)c1F [Compound 124], the “T1/2” value [1] is reported as 10.5 h, the “% Remaining at T120” value [1] is reported as 85.0% and the “T1/2” value [2] is reported as 94.15 h. The “% Remaining at T120” value [2] was 101.5%, the “T1/2” value [3] was over 2 h and the “% Remaining at T120” value [3] was 105.4%. The “CYP-2C9 (Diclofenac) mean percentage CYP inhibition” value (CYP2C9) was 65.5%, the “CLint (L/hr/kg)” value (human hepatocytes) was 0.953 L/h/kg and the “CLint (mL/min/kg)” value (human hepatocytes) was 15.9 mL/min/kg. The “% Remaining At T120” value (human hepatocytes) was 70.3%, the “T1/2” value (human hepatocytes) was 3.93 h and the “% Remaining At T120” value [4] was 49.2%. The “CLint (L/hr/kg)” value [4] was 2.87 L/h/kg, the “CLint (mL/min/kg)” value [4] was 47.9 mL/min/kg and the “T1/2” value [4] was 1.95 h. For the same molecule, the “% Remaining At T120” value (beagle dog hepatocytes) was 34.4%, the “CLint (L/hr/kg)” value (beagle dog hepatocytes) was 5.73 L/h/kg and the “CLint (mL/min/kg)” value (beagle dog hepatocytes) was 95.6 mL/min/kg. The “T1/2” value (beagle dog hepatocytes) was 1.3 h, the “% Remaining At T120” value [5] was 32.2% and the “CLint (L/hr/kg)” value [5] was 3.06 L/h/kg. For the same molecule, the “CLint (mL/min/kg)” value [5] was 51.0 mL/min/kg, the “T1/2” value [5] was 1.22 h and the “% Remaining At T120” value (balb/c mouse hepatocytes) was 55.1%. For the same molecule, the “CLint (L/hr/kg)” value (balb/c mouse hepatocytes) was 7.04 L/h/kg, the “CLint (mL/min/kg)” value (balb/c mouse hepatocytes) was 117 mL/min/kg and the “T1/2” value (balb/c mouse hepatocytes) was 2.33 h. The “A − B Permeability Ranking” value (Caco-2 cells) was “Higher”, the “Mean Efflux Ratio” value (Caco-2 cells) was 5.12 and the “Mean Papp A − B (10^−6 cm/s)” value (Caco-2 cells) was 3.51 10^−6 cm/s. For the same molecule, the “Mean Papp B − A (10^−6 cm/s)” value (Caco-2 cells) was 18.0 10^−6 cm/s.

For CCN(C)Cc1c(Cc2cccc(NS(=O)(=O)NC)c2Cl)c(=O)oc2cc(OC(=O)N(C)C)ccc12 [Compound 245, 3-(2-chloro-3-((N-methylsulfamoyl)amino)benzyl)-4-((ethyl(methyl)amino)methyl)-2-oxo-2H-chromen-7-yl dimethylcarbamate], the “% Remaining at T120” value [1] was 106.8%, the half-life at 2 μM [1] was over 2 h and the “% Remaining at T120” value [2] was 104.1%. For the same molecule, the half-life at 2 μM [2] was over 2 h, the “% Remaining at T120” value [3] was 81.9% and the half-life at 2 μM [3] was 7.98 h. The inhibition at 30 min, 10 µM (CYP2C9) was 25.8%, the “% Remaining At T120” value (human hepatocytes) was 13.9% and the “% Remaining At T120” value [4] was 3.3%. For the same molecule, the “% Remaining At T120” value (beagle dog hepatocytes) was 23.4%, the “% Remaining At T120” value [5] was 15.7% and the “% Remaining At T120” value (balb/c mouse hepatocytes) was 52.8%. The “A − B Permeability Ranking” value (Caco-2 cells) was “Higher”.

In the case of CNS(=O)(=O)Nc1cccc(Cc2c(CN(C)C)c3ccc(OC(=O)N(C)C)cc3oc2=O)c1F [Compound 9], the “T1/2” value [1] is reported as over 2 h, the “% Remaining at T120” value [1] is reported as 99.8% and the “T1/2” value [2] is reported as over 2 h. For the same molecule, the “% Remaining at T120” value [2] was 100.5%, the “T1/2” value [3] was 8.78 h and the “% Remaining at T120” value [3] was 86.0%. For the same molecule, the “CYP-2C9 (Diclofenac) mean percentage CYP inhibition” value (CYP2C9) was 13.4%, the “CLint (L/hr/kg)” value (human hepatocytes) was 1.93 L/h/kg and the “CLint (mL/min/kg)” value (human hepatocytes) was 32.2 mL/min/kg. The “% Remaining At T120” value (human hepatocytes) was 48.9%, the “T1/2” value (human hepatocytes) was 1.93 h and the “% Remaining At T120” value [4] was 44.3%. For the same molecule, the “CLint (L/hr/kg)” value [4] was 3.30 L/h/kg, the “CLint (mL/min/kg)” value [4] was 54.9 mL/min/kg and the “T1/2” value [4] was 1.7 h. The “% Remaining At T120” value (beagle dog hepatocytes) was 66.2%, the “CLint (L/hr/kg)” value (beagle dog hepatocytes) was 2.22 L/h/kg and the “CLint (mL/min/kg)” value (beagle dog hepatocytes) was 36.9 mL/min/kg. The “T1/2” value (beagle dog hepatocytes) was 3.37 h, the “% Remaining At T120” value [5] was 34.9% and the “CLint (L/hr/kg)” value [5] was 2.84 L/h/kg. The “CLint (mL/min/kg)” value [5] was 47.3 mL/min/kg, the “T1/2” value [5] was 1.32 h and the “% Remaining At T120” value (balb/c mouse hepatocytes) was 73.8%. For the same molecule, the “CLint (L/hr/kg)” value (balb/c mouse hepatocytes) was 3.58 L/h/kg, the “CLint (mL/min/kg)” value (balb/c mouse hepatocytes) was 59.7 mL/min/kg and the “T1/2” value (balb/c mouse hepatocytes) was 4.57 h. For the same molecule, the “A − B Permeability Ranking” value (Caco-2 cells) was “Higher”, the “Mean Efflux Ratio” value (Caco-2 cells) was 1.32 and the “Mean Papp A − B (10^−6 cm/s)” value (Caco-2 cells) was 16.4 10^−6 cm/s. The “Mean Papp B − A (10^−6 cm/s)” value (Caco-2 cells) was 21.7 10^−6 cm/s.

In the case of CCCS(=O)(=O)Nc1cccc(Cc2c(CN3CCNCC3)c3cc(Cl)c(OC(=O)N(C)C)cc3oc2=O)c1F [Compound 167], the “T1/2” value [1] is reported as 15.8 h, the “% Remaining at T120” value [1] is reported as 84.6% and the “T1/2” value [2] is reported as over 2 h. For the same molecule, the “% Remaining at T120” value [2] was 106.2%, the “T1/2” value [3] was over 2 h and the “% Remaining at T120” value [3] was 100.5%. For the same molecule, the “CYP-2C9 (Diclofenac) mean percentage CYP inhibition” value (CYP2C9) was 71.8%, the “CLint (L/hr/kg)” value (human hepatocytes) was 1.67 L/h/kg and the “CLint (mL/min/kg)” value (human hepatocytes) was 27.9 mL/min/kg. The “% Remaining At T120” value (human hepatocytes) was 53.8%, the “T1/2” value (human hepatocytes) was 2.23 h and the “% Remaining At T120” value [4] was 29.0%. For the same molecule, the “CLint (L/hr/kg)” value [4] was 5.02 L/h/kg, the “CLint (mL/min/kg)” value [4] was 83.7 mL/min/kg and the “T1/2” value [4] was 1.12 h. The “% Remaining At T120” value (beagle dog hepatocytes) was 17.7%, the “CLint (L/hr/kg)” value (beagle dog hepatocytes) was 9.31 L/h/kg and the “CLint (mL/min/kg)” value (beagle dog hepatocytes) was 155 mL/min/kg. The “T1/2” value (beagle dog hepatocytes) was 0.8 h, the “% Remaining At T120” value [5] was 31.0% and the “CLint (L/hr/kg)” value [5] was 3.16 L/h/kg. The “CLint (mL/min/kg)” value [5] was 52.6 mL/min/kg, the “T1/2” value [5] was 1.18 h and the “% Remaining At T120” value (balb/c mouse hepatocytes) was 52.5%. The “CLint (L/hr/kg)” value (balb/c mouse hepatocytes) was 7.61 L/h/kg, the “CLint (mL/min/kg)” value (balb/c mouse hepatocytes) was 127 mL/min/kg and the “T1/2” value (balb/c mouse hepatocytes) was 2.15 h. For the same molecule, the “A − B Permeability Ranking” value (Caco-2 cells) was “Lower”, the “Mean Efflux Ratio” value (Caco-2 cells) was 23.2 and the “Mean Papp A − B (10^−6 cm/s)” value (Caco-2 cells) was 0.845 10^−6 cm/s. For the same molecule, the “Mean Papp B − A (10^−6 cm/s)” value (Caco-2 cells) was 19.6 10^−6 cm/s.

In the case of CNS(=O)(=O)Nc1cccc(Cc2c(CN3CCNCC3)c3ccc(OC(=O)N(C)C)cc3oc2=O)c1Cl [Compound 246, 3-(2-chloro-3-((N-methylsulfamoyl)amino)benzyl)-2-oxo-4-(piperazin-1-ylmethyl)-2H-chromen-7-yl dimethylcarbamate hydrochloride], the “% Remaining at T120” value [1] is reported as 105.7%, the half-life at 2 μM [1] is reported as over 2 h and the “% Remaining at T120” value [2] is reported as 100.2%. For the same molecule, the half-life at 2 μM [2] was 60.5 h, the “% Remaining at T120” value [3] was 94.5% and the half-life at 2 μM [3] was 18.5 h. The inhibition at 30 min, 10 µM (CYP2C9) was 19.4%, the “% Remaining At T120” value (human hepatocytes) was 95.3% and the “% Remaining At T120” value [4] was 81.4%. The “% Remaining At T120” value (beagle dog hepatocytes) was 79.6%, the “% Remaining At T120” value [5] was 63.0% and the “% Remaining At T120” value (balb/c mouse hepatocytes) was 73.6%. For the same molecule, the “A − B Permeability Ranking” value (Caco-2 cells) was “Higher”.
